Assay results: patent US9873709B2 (priority 2013, dated 2018)
Where a name gives a salt, the structure may show the parent alone.

Assays:
[1] = test system: JAK1-dependent STAT6 phosphorylation downstream of IL-13 stimulation in BEAS-2B human bronchial epithelial cells; assay: cells; conditions: read-out: IL13-pSTAT6 BEASB2B IC50
[2] = test system: JAK1-dependent STAT6 phosphorylation downstream of IL-13 stimulation in TF-1 human erythroleukemia cells; assay: cells; conditions: TF-1, read-out: IL-13-pSTAT6 IC50
Procedure: Inhibitor potency (EC50) was determined in cell-based assays designed to measure JAK1 dependent STAT phosphorylation.
Prior to use in the assays, TF-1 cells were starved of GM-CSF overnight in OptiMEM medium (Life Technologies, Grand Island, N.Y.) supplemented with 0.5% charcoal/dextran stripped fetal bovine serum (FBS), 0.1 mM non-essential amino acids (NEAA), and 1 mM sodium pyruvate. The assays were run in 384-well plates in serum-free OptiMEM medium using 300,000 cells per well. In a second assay approach, BEAS-2B human bronchial epithelial cells obtained from ATCC were plated at 100,000 cells per well of a 96-well plate one day prior to the experiment. The BEAS-2B assay was run in complete growth medium (bronchial epithelial basal medium plus bulletkit; Lonza; Basel, Switzerland).
Test compounds were serially diluted 1:2 in DMSO and then diluted 1:50 in medium just before use. Diluted compounds were added to the cells, for a final DMSO concentration of 0.2%, and incubated for 30 min (for the TF-1 assay) or 1 hr (for the BEAS-2B assay) at 37° C. Then, cells were stimulated with human recombinant cytokine at their respective EC90 concentrations, as previously determined for each individual lot. […] The resultant samples were frozen in the plates at −80° C. Compound mediated inhibition of STAT6 phosphorylation was measured in the cell lysates using MesoScale Discovery (MSD) technology (Gaithersburg, Md.).

[3] = target: isolated recombinant JAK2 kinase domain (Homo sapiens (Human), UniProt O60674); conditions: read-out: JAK2 Ki; isolated recombinant JAK2 kinase domain, 25 μM ATP
isolated recombinant JAK2 kinase domain, sequence (O60674 849-1124): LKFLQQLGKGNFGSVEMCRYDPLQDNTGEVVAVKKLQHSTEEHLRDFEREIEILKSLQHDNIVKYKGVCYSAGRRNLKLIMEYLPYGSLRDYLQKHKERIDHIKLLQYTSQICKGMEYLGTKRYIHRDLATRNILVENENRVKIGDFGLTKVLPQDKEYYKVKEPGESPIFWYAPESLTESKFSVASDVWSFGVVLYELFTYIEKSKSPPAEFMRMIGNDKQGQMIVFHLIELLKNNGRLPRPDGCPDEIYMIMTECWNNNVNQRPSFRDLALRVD

SMILES | IC50 [1] [nM] | IC50 [2] [nM] | Ki [3] [nM]
O=C(c1ccc(Nc2nc3c(N4CCC(CO)(c5ccc(Cl)cc5)CC4)cccn3n2)cc1)N1CCC(c2ccncc2)C1 (stereo not drawn) [Example 1-279, [4-[[8-[4-(4-chlorophenyl)-4-(hydroxymethyl)-1-piperidyl]-[1,2,4]triazolo[1,5-a]pyridin-2-yl]amino]phenyl]-[3-(4-pyridyl)pyrrolidin-1-yl]methanone] | 34.6 | 28.1 | –
CNC1CN(C(=O)c2ccc(Nc3nc4c(N5CCC(O)(c6ccc(Cl)cc6)CC5)cccn4n3)cc2)C1 [Example 1-47, [4-[[8-[4-(4-chlorophenyl)-4-hydroxy-1-piperidyl]-[1,2,4]triazolo[1,5-a]pyridin-2-yl]amino]phenyl]-[3-(methylamino)azetidin-1-yl]methanone] | 58.1 | 10.3 | –
CCOC(=O)N1CC=C(c2cccn3nc(Nc4ccc(C(=O)NCCCN5CCOCC5)cc4)nc23)CC1 [Example 2-56, ethyl 4-[2-[4-(3-morpholinopropylcarbamoyl)anilino]-[1,2,4]triazolo[1,5-a]pyridin-8-yl]-3,6-dihydro-2H-pyridine-1-carboxylate] | 59.4 | 6.7 | –
CN1CC[C@H]2CN(C(=O)c3ccc(Nc4nc5c(C6=CCN(C(=O)CCC(F)(F)F)CC6)cccn5n4)cc3)C[C@H]21 [Example 2-38, 1-[4-[2-[4-[(3aS,6aS)-1-methyl-2,3,3a,4,6,6a-hexahydropyrrolo[3,4-b]pyrrole-5-carbonyl]anilino]-[1,2,4]triazolo[1,5-a]pyridin-8-yl]-3,6-dihydro-2H-pyridin-1-yl]-4,4,4-trifluoro-butan-1-one] | 28.6 | 2.9 | –
CN1CCC(N(C)C(=O)c2ccc(Nc3nc4c(N5CCC(c6ccc(Cl)cc6)(C(O)C(F)(F)F)CC5)cccn4n3)cc2)CC1 (stereo not drawn) [Example 1-253, 4-[[8-[4-(4-chlorophenyl)-4-(2,2,2-trifluoro-1-hydroxy-ethyl)-1-piperidyl]-[1,2,4]triazolo[1,5-a]pyridin-2-yl]amino]-N-methyl-N-(1-methyl-4-piperidyl)benzamide] | 418 | – | –
CN(CCC#N)C1CCN(C(=O)Cn2cc(Nc3nc4c(N5CCC(CO)(c6ccc(Cl)cc6)CC5)cccn4n3)cn2)CC1 [Example 1-296, 3-[[1-[2-[4-[[8-[4-(4-chlorophenyl)-4-(hydroxymethyl)-1-piperidyl]-[1,2,4]triazolo[1,5-a]pyridin-2-yl]amino]pyrazol-1-yl]acetyl]-4-piperidyl]-methyl-amino]propanenitrile] | 12.6 | – | –
O=C(NCCCN1CCOCC1)c1ccc(Nc2nc3c(C4C=CN(C(=O)CCC(F)(F)F)CC4)cccn3n2)cc1 (stereo not drawn) [Example 1-295, N-(3-morpholinopropyl)-4-[[8-[1-(4,4,4-trifluorobutanoyl)-3,4-dihydro-2H-pyridin-4-yl]-[1,2,4]triazolo[1,5-a]pyridin-2-yl]amino]benzamide] | 729 | – | –
CN1CCC(N(C)C(=O)c2ccc(Nc3nc4c(N5CCC(c6ccc(Cl)cc6)(C(O)CO)CC5)cccn4n3)cc2)CC1 (stereo not drawn) [Example 1-270, 4-[[8-[4-(4-chlorophenyl)-4-(1,2-dihydroxyethyl)-1-piperidyl]-[1,2,4]triazolo[1,5-a]pyridin-2-yl]amino]-N-methyl-N-(1-methyl-4-piperidyl)benzamide] | 114 | – | –
CN(C)CCN1CCN(C(=O)c2ccc(Nc3nc4c(N5CCC(O)(c6ccc(Cl)cc6)CC5)cccn4n3)cc2)CC1 [Example 1-139, [4-[[8-[4-(4-chlorophenyl)-4-hydroxy-1-piperidyl]-[1,2,4]triazolo[1,5-a]pyridin-2-yl]amino]phenyl]-[4-[2-(dimethylamino)ethyl]piperazin-1-yl]methanone] | – | 20.6 | 1.95
CNC(=O)C1CN(C(C)C)CCN1C(=O)c1ccc(Nc2nc3c(N4CCC(O)(c5ccc(Cl)cc5)CC4)cccn3n2)cc1 (stereo not drawn) [Example 1-174, 1-[4-[[8-[4-(4-chlorophenyl)-4-hydroxy-1-piperidyl]-[1,2,4]triazolo[1,5-a]pyridin-2-yl]amino]benzoyl]-4-isopropyl-N-methyl-piperazine-2-carboxamide] | – | 31.1 | 2.31
CN1CCC(N(C)C(=O)c2ccc(Nc3nc4c(N5CCC(CC(N)=O)(c6ccc(Cl)cc6)CC5)cccn4n3)cc2)CC1 [Example 1-298] | – | 125 | 0.45
O=C(Cn1cc(Nc2nc3c(N4CCC(CO)(c5ccc(Cl)cc5)CC4)cccn3n2)cn1)N1CCC(CN2CCOCC2)CC1 [Example 1-289, 2-[4-[[8-[4-(4-chlorophenyl)-4-(hydroxymethyl)-1-piperidyl]-[1,2,4]triazolo[1,5-a]pyridin-2-yl]amino]pyrazol-1-yl]-1-[4-(morpholinomethyl)-1-piperidyl]ethanone] | 8.1 | – | –
CN1CCC(N(C)C(=O)c2ccc(Nc3nc4c(N5CCC(OCC#N)CC5)cccn4n3)cc2)CC1 [Example 1-23, 4-[[8-[4-(cyanomethoxy)-1-piperidyl]-[1,2,4]triazolo[1,5-a]pyridin-2-yl]amino]-N-methyl-N-(1-methyl-4-piperidyl)benzamide] | – | 73.7 | 2.5
CN1CCC(CCNC(=O)c2ccc(Nc3nc4c(N5CCC(O)(c6ccc(Cl)cc6)CC5)cccn4n3)cc2)CC1 [Example 1-154, 4-[[8-[4-(4-chlorophenyl)-4-hydroxy-1-piperidyl]-[1,2,4]triazolo[1,5-a]pyridin-2-yl]amino]-N-[2-(1-methyl-4-piperidyl)ethyl]benzamide] | – | 37.3 | 0.64
COC1CCN(c2cccn3nc(Nc4ccc(C(=O)N(C)C5CCN(C)CC5)cc4)nc23)CC1 [Example 1-8, 4-[[8-(4-methoxy-1-piperidyl)-[1,2,4]triazolo[1,5-a]pyridin-2-yl]amino]-N-methyl-N-(1-methyl-4-piperidyl)benzamide] | – | 756 | 23.1
CNC1CCN(C(=O)Cn2cc(Nc3nc4c(N5CCC(CO)(c6ccc(Cl)cc6)CC5)cccn4n3)cn2)CC1 [Example 1-291, 2-[4-[[8-[4-(4-chlorophenyl)-4-(hydroxymethyl)-1-piperidyl]-[1,2,4]triazolo[1,5-a]pyridin-2-yl]amino]pyrazol-1-yl]-1-[4-(methylamino)-1-piperidyl]ethanone] | 525 | – | –
CCOC(=O)N1CC=C(c2cccn3nc(Nc4ccc(C(=O)N5CCC(N6CCOCC6)CC5)cc4)nc23)CC1 [Example 2-18, ethyl 4-[2-[4-(4-morpholinopiperidine-1-carbonyl)anilino]-[1,2,4]triazolo[1,5-a]pyridin-8-yl]-3,6-dihydro-2H-pyridine-1-carboxylate] | 134 | – | –
CCOC(=O)N1CC=C(c2cccn3nc(Nc4ccc(C(=O)N5CCC(N6CC(C)OC(C)C6)CC5)cc4)nc23)CC1 (stereo not drawn) [Example 2-63, ethyl 4-[2-[4-[4-(2,6-dimethylmorpholin-4-yl)piperidine-1-carbonyl]anilino]-[1,2,4]triazolo[1,5-a]pyridin-8-yl]-3,6-dihydro-2H-pyridine-1-carboxylate] | 151 | – | –
CN1CCC(N(C)C(=O)c2ccc(Nc3nc4c(N5CCC(O)(c6ccc(C#N)cc6)CC5)cccn4n3)cc2)CC1 [Example 1-21, 4-[[8-[4-(4-cyanophenyl)-4-hydroxy-1-piperidyl]-[1,2,4]triazolo[1,5-a]pyridin-2-yl]amino]-N-methyl-N-(1-methyl-4-piperidyl)benzamide] | – | 333 | 6.49
O=C(NCCN1CCCCC1)c1ccc(Nc2nc3c(N4CCC(O)(c5ccc(Cl)cc5)CC4)cccn3n2)cc1 [Example 1-173, 4-[[8-[4-(4-chlorophenyl)-4-hydroxy-1-piperidyl]-[1,2,4]triazolo[1,5-a]pyridin-2-yl]amino]-N-[2-(1-piperidyl)ethyl]benzamide] | – | 23.1 | 2.45
CN(Cc1cccnc1)C(=O)c1ccc(Nc2nc3c(N4CCC(O)(c5ccc(Cl)cc5)CC4)cccn3n2)cc1 [Example 1-138, 4-[[8-[4-(4-chlorophenyl)-4-hydroxy-1-piperidyl]-[1,2,4]triazolo[1,5-a]pyridin-2-yl]amino]-N-methyl-N-(3-pyridylmethyl)benzamide] | – | 135 | 3.56
COC1(c2ccccc2)CCN(c2cccn3nc(Nc4ccc(C(=O)N(C)C5CCN(C)CC5)cc4)nc23)CC1 [Example 1-5, 4-[[8-(4-methoxy-4-phenyl-1-piperidyl)-[1,2,4]triazolo[1,5-a]pyridin-2-yl]amino]-N-methyl-N-(1-methyl-4-piperidyl)benzamide; hydrochloride] | – | 767 | 5.15
CCOC(=O)N1CC=C(c2cccn3nc(Nc4ccc(C(=O)N5CCC(N6CCOCC6)C5)cc4)nc23)CC1 (stereo not drawn) [Example 2-66, ethyl 4-[2-[4-(3-morpholinopyrrolidine-1-carbonyl)anilino]-[1,2,4]triazolo[1,5-a]pyridin-8-yl]-3,6-dihydro-2H-pyridine-1-carboxylate] | 224 | – | –
CC1CN(C2CCN(C(=O)c3ccc(Nc4nc5c(N6CCC(O)(c7ccc(Cl)cc7)CC6)cccn5n4)cc3)CC2)CC(C)O1 (stereo not drawn) [Example 1-118, [4-[[8-[4-(4-chlorophenyl)-4-hydroxy-1-piperidyl]-[1,2,4]triazolo[1,5-a]pyridin-2-yl]amino]phenyl]-[4-(2,6-dimethylmorpholin-4-yl)-1-piperidyl]methanone] | 112 | – | –
N#CCCN1CCN(C(=O)c2ccc(Nc3nc4c(N5CCC(O)(c6ccc(Cl)cc6)CC5)cccn4n3)cc2)CC1 [Example 1-167, 3-[4-[4-[[8-[4-(4-chlorophenyl)-4-hydroxy-1-piperidyl]-[1,2,4]triazolo[1,5-a]pyridin-2-yl]amino]benzoyl]piperazin-1-yl]propanenitrile] | – | 12.1 | 2.86
CC(C)N1CCC(CN(C)C(=O)c2ccc(Nc3nc4c(N5CCC(O)(c6ccc(Cl)cc6)CC5)cccn4n3)cc2)C1 (stereo not drawn) [Example 1-129, 4-[[8-[4-(4-chlorophenyl)-4-hydroxy-1-piperidyl]-[1,2,4]triazolo[1,5-a]pyridin-2-yl]amino]-N-[(1-isopropylpyrrolidin-3-yl)methyl]-N-methyl-benzamide] | – | 37.7 | 1.74
